Assay results published in patent publication US11667602B2, “Compounds and their use” (AstraZeneca AB, priority 2020, dated 2023).
In brackets after ≈: the same amount, converted by molar mass.

Columns and labels:
[1] = Human Plasma Protein Binding (Test B); type: in vitro ADME; conditions: fraction unbound (fu)
Procedure, shortened: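 Values given as % free (fu) in human plasma, using the method of Wernevik et al. (2020). For compounds tested more than once, the arithmetic mean is given.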

human RXFP1 = biological target: T1, human RXFP1 (Homo sapiens, UniProt Q9HBX9); assay: RXFP1 Hu cAMP (Test A); type: cell-based; design: expressed in transfected cells; host or cells: Jump-In T-REx CHO-K1 cells (ThermoFisher), induced with 10 ng/ml doxycycline for 24 h; conditions: RXFP1 Hu cAMP; for EC50: read-out: Test A EC50
T1 sequence (Q9HBX9 1-757): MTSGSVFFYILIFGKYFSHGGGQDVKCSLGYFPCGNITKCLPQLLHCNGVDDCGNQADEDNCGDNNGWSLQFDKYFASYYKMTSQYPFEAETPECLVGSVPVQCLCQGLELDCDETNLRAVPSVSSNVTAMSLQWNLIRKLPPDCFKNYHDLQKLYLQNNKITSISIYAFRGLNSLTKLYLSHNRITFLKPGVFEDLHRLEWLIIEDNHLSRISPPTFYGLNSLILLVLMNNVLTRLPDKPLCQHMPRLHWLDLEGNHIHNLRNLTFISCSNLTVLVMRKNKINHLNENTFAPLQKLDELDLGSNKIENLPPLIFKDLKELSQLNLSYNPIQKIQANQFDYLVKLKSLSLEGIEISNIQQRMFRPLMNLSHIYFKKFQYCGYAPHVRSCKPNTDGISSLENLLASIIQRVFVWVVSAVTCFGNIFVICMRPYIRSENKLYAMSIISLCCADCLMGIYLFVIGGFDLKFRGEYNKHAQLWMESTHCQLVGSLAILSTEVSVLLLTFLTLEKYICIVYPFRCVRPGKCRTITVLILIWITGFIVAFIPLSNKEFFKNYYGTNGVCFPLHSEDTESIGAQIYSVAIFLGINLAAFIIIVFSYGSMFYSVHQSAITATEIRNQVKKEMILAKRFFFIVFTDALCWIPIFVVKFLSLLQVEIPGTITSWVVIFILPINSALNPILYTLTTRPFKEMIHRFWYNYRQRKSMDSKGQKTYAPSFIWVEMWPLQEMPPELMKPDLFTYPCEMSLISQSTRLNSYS
Procedure, shortened: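 Read-out is HTRF signal, inversely proportional to cAMP, converted to cAMP amount by standard curve. Stimulation occurred in inducible CHO-K1 cells expressing the human receptor with phosphodiesterases blocked by 0.5 mM IBMX.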

[2] = Rat Hepatocyte Stability (Test E); type: in vitro ADME; conditions: rat, hepatocytes, geometric mean if run multiple times
Procedure, shortened: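 Intrinsic clearance in rat hepatocytes, expressed as μl/min/10^6 cells, following the literature integrated DMPK panel method. Repeat determinations combined as geometric mean.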

Solubility (Test F) = type: physicochemical; conditions: arithmetic mean if run multiple times
Description: The assay was conducted according to the Solubility Assay described in pages 164-167 of Wernevik, J. et al., “A Fully Integrated Assay Panel for Early Drug Metabolism and Pharmacokinetics Profiling”, Assay and Drug Development Technologies, 2020, 18(4), 157-179. Data are reported in Table 36 as solubility ([…]. Where the assay was run multiple times for the same compound, the arithmetic mean is reported.

[3] = Human Liver Microsomal Stability (Test C); type: in vitro ADME; conditions: human, liver microsomes
Procedure, shortened: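 CLint (μl/min/mg protein) derived from compound depletion in human liver microsomes following a published standardized early-DMPK protocol; replicate determinations given as arithmetic mean.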

Structure (SMILES)	Test B Human Plasma Protein Binding (% free) [1] [% free]	Test A Sinf (human RXFP1) [%]	EC50 (human RXFP1) [nM]	hepatocyte CLint [2] [µL/min/1e6 cells]	solubility (Solubility (Test F)) [µM]	microsomal CLint [3] [µL/min/mg]
COc1cc(F)c(O[C@H]2CC[C@@H](C(=O)O)CC2)cc1C(=O)N[C@@H]1[C@H]2CC[C@H](C2)[C@@H]1C(=O)Nc1cc(F)cc(S(F)(F)(F)(F)F)c1 [Example 17, (1S,4s)-4-(2-Fluoro-5-(((1S,2R,3S,4R)-3-((3-fluoro-5-(pentafluoro-6-sulfaneyl)phenyl)carbamoyl)bicyclo[2.2.1]heptan-2-yl)carbamoyl)-4-methoxyphenoxy)cyclohexane-1-carboxylic acid]	<0.21	110	48	11	150 (≈ 100 µg/mL)	20
COc1ccc(O[C@H]2CC[C@@H](C(=O)O)CC2)cc1C(=O)N[C@@H]1[C@H]2CC[C@H](C2)[C@@H]1C(=O)Nc1cccc(S(=O)(=O)C(F)(F)F)c1 [Example 466, (1S,4s)-4-(4-Methoxy-3-(((1S,2R,3S,4R)-3-((3-((trifluoromethyl)sulfonyl)phenyl)carbamoyl)bicyclo[2.2.1]heptan-2-yl)carbamoyl)phenoxy)cyclohexane-1-carboxylic acid]	2.1	106	93	29	> 1000	37
COc1cc(F)c(-c2ccc(C(=O)O)c(F)c2)cc1C(=O)N[C@@H]1[C@H]2CC[C@H](C2)[C@@H]1C(=O)Nc1cccc(S(=O)(=O)C(F)(F)F)c1 [Example 236, 2′,3-Difluoro-4′-methoxy-5′-(((1S,2R,3S,4R)-3-((3-((trifluoromethyl)sulfonyl)phenyl)carbamoyl)bicyclo[2.2.1]heptan-2-yl)carbamoyl)-[1,1′-biphenyl]-4-carboxylic acid]	0.50	103	210	14	> 1000	13
COc1cc(F)c(O[C@H]2CC[C@@H](C(=O)O)CC2)cc1C(=O)NC1C(C(=O)NCCCC(F)(F)F)[C@@H]2CC[C@H]1C2 (stereo partly drawn) [Example 175, (1S,4s)-4-(2-Fluoro-4-methoxy-5-(((1S,2R,3S,4R)-3-((4,4,4-trifluorobutyl)carbamoyl)bicyclo[2.2.1]heptan-2-yl)carbamoyl)phenoxy)cyclohexane-1-carboxylic acid]	14	100	> 5900	110	> 1000	5.8
COc1cc(F)c(O[C@H]2CC[C@@H](C(=O)O)CC2)cc1C(=O)N[C@@H]1[C@H]2CC[C@H](C2)[C@@H]1C(=O)Nc1cccc(OC(F)(F)F)c1 [Example 20]	0.74	102	48	63	980 (≈ 596 µg/mL)	28
COc1cc(F)c(O[C@H]2CC[C@@H](C(=O)O)CC2)cc1C(=O)N[C@@H]1[C@H]2CC[C@H](C2)[C@@H]1C(=O)Nc1ccc(S(=O)(=O)C(F)(F)F)cc1 [Example 15, (1S,4s)-4-(2-Fluoro-4-methoxy-5-(((1S,2R,3S,4R)-3-((4-((trifluoromethyl)sulfonyl)phenyl)carbamoyl)bicyclo[2.2.1]heptan-2-yl)carbamoyl)phenoxy)cyclohexane-1-carboxylic acid]	1.3	94	420	13	390 (≈ 256 µg/mL)	14
CCC(CC)CNC(=O)[C@H]1[C@@H]2CC[C@@H](C2)[C@H]1NC(=O)c1cc(O[C@H]2CC[C@@](C)(C(=O)O)CC2)c(C#N)cc1OC [Example 88]	4.4	124	33	26	610 (≈ 338 µg/mL)	40
COc1cc(F)c(O[C@H]2CC[C@@](C)(C(=O)O)CC2)cc1C(=O)N[C@@H]1[C@H]2CC[C@H](C2)[C@@H]1C(=O)NCC1(CF)CC1 [Example 48]	13	96	380	18	1000 (≈ 549 µg/mL)	< 3
COc1cc(C#N)c(O[C@H]2CC[C@@](C)(C(=O)O)CC2)cc1C(=O)N[C@@H]1[C@H]2CC[C@H](C2)[C@@H]1C(=O)NCC1(O)CCCC1 [Example 74]	26		> 5000	10	920 (≈ 522 µg/mL)	< 3
COc1cc(C#N)c(O[C@H]2CC[C@@](C)(C(=O)O)CC2)cc1C(=O)N[C@@H]1[C@H]2CC[C@H](C2)[C@@H]1C(=O)NCC1(C)CCCCCC1 [Example 105]	2.5	125	4.8	48	220 (≈ 131 µg/mL)	> 300
COc1cc(F)c(O[C@H]2CC[C@@](C)(C(=O)O)CC2)cc1C(=O)Nc1c(C)cc(C)cc1C(=O)NCC1(C)CCC1 [Example 211, (1s,4s)-4-(5-((2,4-Dimethyl-6-(((1-methylcyclobutyl)methyl)carbamoyl)phenyl)carbamoyl)-2-fluoro-4-methoxyphenoxy)-1-methylcyclohexane-1-carboxylic acid]	1.4	100	> 9300	12	29 (≈ 16.1 µg/mL)	5.2
COc1cc(F)c(O[C@H]2CC[C@@H](C(=O)O)CC2)cc1C(=O)N[C@@H]1[C@H]2CC[C@H](C2)[C@@H]1C(=O)Nc1cccc(C(F)(F)F)c1 [Example 193]	0.93	105	62	61	> 1000	29
COc1cc(F)c(O[C@H]2CC[C@@H](C(=O)O)CC2)cc1C(=O)N[C@@H]1[C@H]2CC[C@H](C2)[C@@H]1C(=O)Nc1cccc(C2CC2)c1 [Example 190]	1.6	110	680	120	420 (≈ 237 µg/mL)	23
COc1cc(F)c(O[C@H]2CC[C@@](C)(C(=O)O)CC2)cc1C(=O)N[C@@H]1[C@H]2CC[C@H](C2)[C@@H]1C(=O)N[C@H](C)C(C)C [Example 46]	7.6	104	71	12	380 (≈ 202 µg/mL)	12
